Data as given in patent US20250127778A1, “CANCER IMMUNOTHERAPY COMPOSITION CONTAINING INTERACTION INHIBITOR OF STING AND TRIM29 AS ACTIVE INGREDIENT” (SPARK BIOPHARMA, INC, priority 2021, published 2025).

Experiments:
[1] = tested on: STING subcytokines (IFN-β, IL-6, IL-15, IL-15Rα); experiment: qRT-PCR of STING subcytokine gene expression in Raw264.7 cells; format: cell-based, mouse; details: time-dependent and concentration-dependent, FIG. 6
Protocol: In order to confirm whether the oxopiperazine derivatives of Formulas 1 to 6 increase the immune activation efficacy of the STING agonist cGAMP by increasing the amount of STING, the gene expression levels of the STING subcytokine interferon-beta (IFN-β), interleukin-6 (IL-6), interleukin-15 (IL-15), and interleukin-15 receptor alpha (IL-15Rα) were confirmed through quantitative real-time PCR (qRT-PCR) experiments.
Specifically, Raw264.7 cells were seeded in a transparent 12-well plate and cultured for one day. Thereafter, the cells were treated with cGAMP and the oxopiperazine derivatives of Formulas 1 to 6, respectively, and then cultured for six hours. Finally, after the supernatant culture medium of the cells was removed, the remaining supernatant was diluted with PBS (phosphate buffer saline) and removed to prepare qRT-PCR samples. mRNA was extracted from cells by using the RNeasy mini kit of QIAGEN according to the protocol of the manufacturer. After the concentration of RNA was measured by using Nanoview equipment of GE Healthcare, 1 μg RNA was quantified, and complementary DNA (cDNA) was synthesized by using the Accupower cyclescript RT premix dT20 (Bioneer) product according to the protocol of the manufacturer. […] The mixed samples were analyzed by using the StepOne Plus Real-Time PCR system (Applied Biosciences), and the results were plotted by using the Prism 8.0 program.

[2] = tested on: tumor-infiltrating leukocytes (TILs); experiment: Flow cytometry of tumor-infiltrating immune cells; format: in vivo, mouse; details: combination with cGAMP, FIG. 26
Protocol: The tumors were extracted after the mice were euthanized with carbon dioxide. The tumor tissues were divided into small pieces with a razor blade, treated with the DMEM solution including 2% horse serum, 0.5 mg/ml of collagenase D, and 40 μg/mL of DNase I for one hour at 37° C., and permeated through a 40-μm filter, thereby being separated into individual cells. Tumor-infiltrating leukocytes (TILs) were separated from the separated cells by percoll concentration-gradient centrifugation, and red blood cells were removed by treatment with red blood cell lysis solution. The obtained cells were redistributed in the FACS solution described above, and FcγRII/III receptors of individual immune cells were neutralized by treatment with the anti-mouse CD16/CD32 Abs (clone 2.4G2) antibody at 4° C. for 10 minutes. The treatment with primary antibodies for individual cell differentiation were performed at 4° C. for 30 minutes. The treated cells were redistributed into a PBS solution after centrifugation and then further centrifuged to remove the supernatant. The cells were fixed by the treatment with 4% paraformaldehyde (PFA) solution at room temperature for 10 minutes, treated with Triton solution (PBS solution including 0.1% BSA and 0.5% Triton-X-100), and centrifuged, and then the supernatant was removed. Cytokine (IFNγ(XMG1.2)-APC, Perforin(S16009A)-PE, granzyme B(QA16A02)-FITC, Biolegend) primary antibodies were treated at room temperature for two hours. Finally, the Triton solution was added, centrifugation was performed, the supernatant was removed, the cells were redistributed into 200 μL of the Triton solution and analyzed by using a FACSCalibur device from BD Bioscience, and the results were quantitatively analyzed by using the FlowJo program from Tree Star, Inc.

[3] = tested on: tumor; experiment: Combination with PD-1 antibody immune checkpoint therapeutic agent in tumor model; format: in vivo, mouse; details: intratumoral, combination with intravenous PD-1 antibody compared to PD-1 antibody alone; FIG. 32
Description: It was confirmed whether the efficacy can be increased in case of treating in combination with existing immune checkpoint therapeutic agents from the efficacy of constructing the systemic anticancer immune system of the compound of Formula 1.

COc1ccc(CC2=CN(c3ccc(C(=O)NC[C@H]4CCCO4)cc3[N+](=O)[O-])[C@H](C(C)C)C(=O)N2Cc2ccc(O)cc2)cc1 [Formula 1, 4-((R)-4-(4-hydroxybenzyl)-2-isopropyl-5-(4-methoxybenzyl)-3-oxo-3,4-dihydropyrazin-1 (2H)-yl)-3-nitro-N-(((R)-tetrahydrofuran-2-yl)methyl)benzamide]
expression of IL-15 and IL-15Rα [1]: increased
infiltration of total T cells and cytotoxic T cells into the tumor ([2]; ratio of CD45+ cells): increased
activity of infiltrated cytotoxic T cells (TNF-α, granzyme B, Perforin) [2]: increased
total ratio of myeloid-derived suppressor cells (MDSC) [2]: decreased
final tumor weight [3]: decreased in a concentration-dependent manner
tumor growth [3]: decreased in a concentration-dependent manner
